Measurements as given in patent US10681909B2, “Herbicidal triazoles” (FMC Corporation, priority 2014, dated 2020).

Key:
barnyardgrass [1] = experiment: Test A postemergence; type: in vivo, Echinochloa crus-galli; details: 0 to 100 scale (0 no effect, 100 complete control), approx. 10 d
Outline: (§1)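 Plant seeds in loam soil blended with sand, then apply test chemical preemergence as a directed soil spray; in parallel, spray potted seedlings (one- to two-leaf, 2 to 10 cm) postemergence. Both treatments use a non-phytotoxic solvent mixture with surfactant.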

foxtail, giant [2] = experiment: Test A postemergence; type: in vivo, Setaria faberii; details: 0 to 100 scale (0 no effect, 100 complete control), approx. 10 d
Outline: as §1

pigweed [3] = experiment: Test A postemergence; type: in vivo, Amaranthus retroflexus; details: 0 to 100 scale (0 no effect, 100 complete control), approx. 10 d
Outline: as §1

corn [4] = experiment: Test A postemergence; type: in vivo, Zea mays; details: 0 to 100 scale (0 no effect, 100 complete control), approx. 10 d
Outline: as §1

rice = experiment: Test B flooded paddy test; type: in vivo, Oryza sativa; details: 250 g ai/ha, applied to paddy water at 2-leaf stage, visual rating after 13 to 15 d, scale 0 (no effect) to 100 (complete control)
Outline: (§2)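 Pots were flooded to 3 cm above the soil at treatment, and compounds were applied directly into the paddy water. That depth was held throughout. After 13 to 15 d in a greenhouse, plants were rated visually against untreated controls.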

sedge, umbrella = experiment: Test B flooded paddy test; type: in vivo, Cyperus difformis; details: 250 g ai/ha, applied to paddy water at 2-leaf stage, visual rating after 13 to 15 d, scale 0 (no effect) to 100 (complete control)
Outline: as §2

ducksalad = experiment: Test B flooded paddy test; type: in vivo, Heteranthera limosa; details: 250 g ai/ha, applied to paddy water at 2-leaf stage, visual rating after 13 to 15 d, scale 0 (no effect) to 100 (complete control)
Outline: as §2

barnyardgrass [5] = experiment: Test B flooded paddy test; type: in vivo, Echinochloa crus-galli; details: 250 g ai/ha, applied to paddy water at 2-leaf stage, visual rating after 13 to 15 d, scale 0 (no effect) to 100 (complete control)
Outline: as §2

ryegrass, Italian = experiment: Test C postemergence; type: in vivo, Lolium multiflorum
Outline: (§3)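 Surfactant-containing, non-phytotoxic solvent formulations of each compound were applied either preemergence to seeds in a loam soil–sand blend or postemergence to plants 2 to 18 cm tall (1- to 4-leaf stage). Postemergence plants were grown in peat moss–vermiculite medium.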

wheat (winter wheat) = experiment: Test C postemergence; type: in vivo, Triticum aestivum
Outline: as §3

galium = experiment: Test C postemergence; type: in vivo, Galium aparine
Outline: as §3

corn [6] = experiment: Test C postemergence; type: in vivo, Zea mays
Outline: as §3

foxtail, giant [7] = experiment: Test C postemergence; type: in vivo, Setaria faberii
Outline: as §3

johnsongrass = experiment: Test C postemergence; type: in vivo, Sorghum halepense
Outline: as §3

lambsquarters = experiment: Test C postemergence; type: in vivo, Chenopodium album
Outline: as §3

nutsedge, yellow = experiment: Test C postemergence; type: in vivo, Cyperus esculentus
Outline: as §3

pigweed [8] = experiment: Test C postemergence; type: in vivo, Amaranthus retroflexus
Outline: as §3

ragweed = experiment: Test C postemergence; type: in vivo, Ambrosia elatior
Outline: as §3

oilseed rape = experiment: Test C postemergence; type: in vivo, Brassica napus
Outline: as §3

chickweed = experiment: Test C postemergence; type: in vivo, Stellaria media
Outline: as §3

oat, wild = experiment: Test C postemergence; type: in vivo, Avena fatua
Outline: as §3

COc1nc(-c2ccc(C(F)(F)F)cc2)nn1Cc1ccnc(C(F)(F)F)c1 [Compound 25]
Plant response rating, Barnyardgrass (barnyardgrass [1]; 31 g ai/ha): 20 | Plant response rating, Barnyardgrass (barnyardgrass [1]; 125 g ai/ha): 60 | Plant response rating, Foxtail, Giant (foxtail, giant [2]; 31 g ai/ha): 50 | Plant response rating, Foxtail, Giant (foxtail, giant [2]; 125 g ai/ha): 90 | Plant response rating, Pigweed (pigweed [3]; 31 g ai/ha): 90 | Plant response rating, Pigweed (pigweed [3]; 125 g ai/ha): 100 | Plant response rating, Corn (corn [4]; 31 g ai/ha): 10 | Plant response rating, Corn (corn [4]; 125 g ai/ha): 30 | Plant response rating, Rice, Flood (rice): 25 | Plant response rating, Sedge, Umbrella, Flood (sedge, umbrella): 95 | Plant response rating, Ducksalad, Flood (ducksalad): 20 | Plant response rating, Barnyardgrass, Flood (barnyardgrass [5]): 35 | Plant response rating (scale of 0 to 100 where 0 is no effect and 100 is complete control) (ryegrass, Italian; 31 g ai/ha): 5 | Plant response rating (scale of 0 to 100 where 0 is no effect and 100 is complete control) (ryegrass, Italian; 62 g ai/ha): 5 | Plant response rating (scale of 0 to 100 where 0 is no effect and 100 is complete control) (ryegrass, Italian; 125 g ai/ha): 10 | Plant response rating (scale of 0 to 100 where 0 is no effect and 100 is complete control) (ryegrass, Italian; 250 g ai/ha): 30 | Plant response rating (scale of 0 to 100 where 0 is no effect and 100 is complete control) (wheat (winter wheat); 31 g ai/ha): 5 | Plant response rating (scale of 0 to 100 where 0 is no effect and 100 is complete control) (wheat (winter wheat); 62 g ai/ha): 5 | Plant response rating (scale of 0 to 100 where 0 is no effect and 100 is complete control) (wheat (winter wheat); 125 g ai/ha): 5 | Plant response rating (scale of 0 to 100 where 0 is no effect and 100 is complete control) (wheat (winter wheat); 250 g ai/ha): 10 | Plant response rating (scale of 0 to 100 where 0 is no effect and 100 is complete control) (galium; 31 g ai/ha): 80 | Plant response rating (scale of 0 to 100 where 0 is no effect and 100 is complete control) (galium; 62 g ai/ha): 90 | Plant response rating (scale of 0 to 100 where 0 is no effect and 100 is complete control) (galium; 125 g ai/ha): 90 | Plant response rating (scale of 0 to 100 where 0 is no effect and 100 is complete control) (galium; 250 g ai/ha): 90 | Plant response rating (scale of 0 to 100 where 0 is no effect and 100 is complete control) (corn [6]; 31 g ai/ha): 20 | Plant response rating (scale of 0 to 100 where 0 is no effect and 100 is complete control) (corn [6]; 62 g ai/ha): 20 | Plant response rating (scale of 0 to 100 where 0 is no effect and 100 is complete control) (corn [6]; 125 g ai/ha): 25 | Plant response rating (scale of 0 to 100 where 0 is no effect and 100 is complete control) (corn [6]; 250 g ai/ha): 25 | Plant response rating (scale of 0 to 100 where 0 is no effect and 100 is complete control) (foxtail, giant [7]; 31 g ai/ha): 10 | Plant response rating (scale of 0 to 100 where 0 is no effect and 100 is complete control) (foxtail, giant [7]; 62 g ai/ha): 20 | Plant response rating (scale of 0 to 100 where 0 is no effect and 100 is complete control) (foxtail, giant [7]; 125 g ai/ha): 20 | Plant response rating (scale of 0 to 100 where 0 is no effect and 100 is complete control) (foxtail, giant [7]; 250 g ai/ha): 35 | Plant response rating (scale of 0 to 100 where 0 is no effect and 100 is complete control) (johnsongrass; 31 g ai/ha): 10 | Plant response rating (scale of 0 to 100 where 0 is no effect and 100 is complete control) (johnsongrass; 62 g ai/ha): 20 | Plant response rating (scale of 0 to 100 where 0 is no effect and 100 is complete control) (johnsongrass; 125 g ai/ha): 20 | Plant response rating (scale of 0 to 100 where 0 is no effect and 100 is complete control) (johnsongrass; 250 g ai/ha): 30 | Plant response rating (scale of 0 to 100 where 0 is no effect and 100 is complete control) (lambsquarters; 31 g ai/ha): 90 | Plant response rating (scale of 0 to 100 where 0 is no effect and 100 is complete control) (lambsquarters; 62 g ai/ha): 90 | Plant response rating (scale of 0 to 100 where 0 is no effect and 100 is complete control) (lambsquarters; 125 g ai/ha): 98 | Plant response rating (scale of 0 to 100 where 0 is no effect and 100 is complete control) (lambsquarters; 250 g ai/ha): 98 | Plant response rating (scale of 0 to 100 where 0 is no effect and 100 is complete control) (nutsedge, yellow; 31 g ai/ha): 20 | Plant response rating (scale of 0 to 100 where 0 is no effect and 100 is complete control) (nutsedge, yellow; 62 g ai/ha): 20 | Plant response rating (scale of 0 to 100 where 0 is no effect and 100 is complete control) (nutsedge, yellow; 125 g ai/ha): 25 | Plant response rating (scale of 0 to 100 where 0 is no effect and 100 is complete control) (nutsedge, yellow; 250 g ai/ha): 25 | Plant response rating (scale of 0 to 100 where 0 is no effect and 100 is complete control) (pigweed [8]; 31 g ai/ha): 100 | Plant response rating (scale of 0 to 100 where 0 is no effect and 100 is complete control) (pigweed [8]; 62 g ai/ha): 100 | Plant response rating (scale of 0 to 100 where 0 is no effect and 100 is complete control) (pigweed [8]; 125 g ai/ha): 100 | Plant response rating (scale of 0 to 100 where 0 is no effect and 100 is complete control) (pigweed [8]; 250 g ai/ha): 100 | Plant response rating (scale of 0 to 100 where 0 is no effect and 100 is complete control) (ragweed; 31 g ai/ha): 65 | Plant response rating (scale of 0 to 100 where 0 is no effect and 100 is complete control) (ragweed; 62 g ai/ha): 80 | Plant response rating (scale of 0 to 100 where 0 is no effect and 100 is complete control) (ragweed; 125 g ai/ha): 75 | Plant response rating (scale of 0 to 100 where 0 is no effect and 100 is complete control) (ragweed; 250 g ai/ha): 85 | Plant response rating (scale of 0 to 100 where 0 is no effect and 100 is complete control) (oilseed rape; Oilsee Rape, 250 g ai/ha): 90 | Plant response rating (scale of 0 to 100 where 0 is no effect and 100 is complete control) (oilseed rape; Oilseed Rape, 31 g ai/ha): 90 | Plant response rating (scale of 0 to 100 where 0 is no effect and 100 is complete control) (oilseed rape; Oilseed Rape, 62 g ai/ha): 90 | Plant response rating (scale of 0 to 100 where 0 is no effect and 100 is complete control) (oilseed rape; Oilseed Rape, 125 g ai/ha): 90 | Plant response rating (scale of 0 to 100 where 0 is no effect and 100 is complete control) (chickweed; 31 g ai/ha): 50 | Plant response rating (scale of 0 to 100 where 0 is no effect and 100 is complete control) (chickweed; 62 g ai/ha): 90 | Plant response rating (scale of 0 to 100 where 0 is no effect and 100 is complete control) (chickweed; 125 g ai/ha): 85 | Plant response rating (scale of 0 to 100 where 0 is no effect and 100 is complete control) (chickweed; 250 g ai/ha): 100 | Plant response rating (scale of 0 to 100 where 0 is no effect and 100 is complete control) (oat, wild; 31 g ai/ha): 10 | Plant response rating (scale of 0 to 100 where 0 is no effect and 100 is complete control) (oat, wild; 62 g ai/ha): 20 | Plant response rating (scale of 0 to 100 where 0 is no effect and 100 is complete control) (oat, wild; 125 g ai/ha): 25 | Plant response rating (scale of 0 to 100 where 0 is no effect and 100 is complete control) (oat, wild; 250 g ai/ha): 35
